Test results reported in publication PMC5424110, “Preclinical anti-arthritic study and pharmacokinetic properties of a potent histone deacetylase inhibitor MPT0G009” (Cell Death & Disease, 2014).

Legend:
recombinant HDAC8 = molecular target: T1, recombinant HDAC8 (Homo sapiens, UniProt Q9BY41); experiment: Fluorogenic assay kit, recombinant HDAC8 enzyme activity; assay type: biochemical; settings: mean±S.E.M., three replicate experiments; read-out: IC50 (nM) of HDAC isoforms enzyme, DHAC8
T1 construct: purchased BPS Bioscience Corp. (San Diego, CA, USA)
T1 sequence (Q9BY41 whole entry, canonical isoform): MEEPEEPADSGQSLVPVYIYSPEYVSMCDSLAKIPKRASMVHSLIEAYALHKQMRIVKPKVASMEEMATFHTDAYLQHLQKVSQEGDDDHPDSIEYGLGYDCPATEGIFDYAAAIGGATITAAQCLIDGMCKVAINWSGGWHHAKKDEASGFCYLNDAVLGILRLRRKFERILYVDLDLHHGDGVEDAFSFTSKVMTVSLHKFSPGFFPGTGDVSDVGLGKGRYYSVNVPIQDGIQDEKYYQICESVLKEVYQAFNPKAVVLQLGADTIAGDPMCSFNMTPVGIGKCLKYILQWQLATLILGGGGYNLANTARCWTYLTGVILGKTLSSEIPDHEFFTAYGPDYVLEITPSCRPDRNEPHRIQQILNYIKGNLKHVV
Text: (§1) Using kits that contained different recombinant HDAC isoforms, we evaluated the ability of MPT0G009 to inhibit HDAC-mediated deacetylation of lysine residues on the substrates that were provided. […] Fluorogenic HDAC assay kits were used to assess the ability of HDAC inhibitors to inhibit deacetylation of lysine residues on the substrate by recombinant HDAC1, 2, 3, 4, 6 or 8 according to the manufacturer's instructions.

NFATc1 in RAW264.7 cells = experiment: NFAT luciferase reporter gene assay, RANKL-induced; assay type: cell-based, mouse; settings: RAW264.7, 5 nM, RANKL 50 ng/ml 24 h
Protocol: (§2) We also assessed the effect of MTP0G009 on the DNA-binding activity of NF-κB and NFATc1, two pivotal transcriptional factors involved in RANKL-induced pathways for promoting osteoclast differentiation.[14], [15] When RAW264.7 cells that had been transiently transfected with reporter plasmids were treated with 5 nM MPT0G009 for 30 min before and during 24-h stimulation with RANKL, MPT0G009 inhibited RANKL-induced NF-κB (Figure 3d) and NFATc1 (Figure 3e) luciferase activity.
(§3) RAW264.7 cells or RA-FLSs were seeded 1 day before transfection. […] For the reporter gene assay, 100 μl of reporter lysis buffer (Promega Corp.) was added, then the cells were scraped off the dishes, centrifuged at 17 000 g for 30 s at 4 °C and the supernatants collected. Aliquots of cell lysates (20 μl) were placed in the wells of an opaque black 96-well microtiter plate, then 40 μl of luciferase substrate (Promega Corp.) was added and the luminescence immediately measured in a microplate luminometer (Beckman Coulter, Krefeld, Germany).

NF-κB in RAW264.7 cells = experiment: NF-κB luciferase reporter gene assay, RANKL-induced; assay type: cell-based, mouse; settings: RAW264.7, 5 nM, RANKL 50 ng/ml 24 h
Protocol: as §2, §3

recombinant HDAC1 = molecular target: T2, recombinant HDAC1 (Homo sapiens, UniProt Q13547); experiment: Fluorogenic assay kit, recombinant HDAC1 enzyme activity; assay type: biochemical; settings: mean±S.E.M., three replicate experiments; read-out: IC50 (nM) of HDAC isoforms enzyme, HDAC1
T2 construct: purchased BPS Bioscience Corp. (San Diego, CA, USA)
T2 sequence (Q13547 whole entry, canonical isoform): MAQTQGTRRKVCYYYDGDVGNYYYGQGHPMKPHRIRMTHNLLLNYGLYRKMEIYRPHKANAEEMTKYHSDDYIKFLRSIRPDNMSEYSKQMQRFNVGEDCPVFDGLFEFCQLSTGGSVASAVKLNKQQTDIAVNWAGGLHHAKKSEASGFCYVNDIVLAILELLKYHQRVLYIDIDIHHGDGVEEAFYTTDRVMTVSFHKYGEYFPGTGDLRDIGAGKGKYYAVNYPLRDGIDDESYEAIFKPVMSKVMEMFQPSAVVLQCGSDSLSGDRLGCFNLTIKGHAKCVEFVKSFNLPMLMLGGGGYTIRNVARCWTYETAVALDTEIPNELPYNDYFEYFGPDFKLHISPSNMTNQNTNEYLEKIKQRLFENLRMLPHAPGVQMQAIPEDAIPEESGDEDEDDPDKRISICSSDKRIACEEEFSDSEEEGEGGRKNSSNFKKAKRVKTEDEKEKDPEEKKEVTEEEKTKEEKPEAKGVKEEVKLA
Text: as §1

[1] = system: histone H3 acetylation in HIG-82 synoviocytes; experiment: Western blot of acetyl histone H3, HIG-82 cells; assay type: cell-based, rabbit; settings: 3 μM MPT0G009 or 60 μM SAHA, 6, 12 or 24 h, starting at 6 h
recombinant HDAC2 = molecular target: T3, recombinant HDAC2 (Homo sapiens, UniProt Q92769); experiment: Fluorogenic assay kit, recombinant HDAC2 enzyme activity; assay type: biochemical; settings: mean±S.E.M., three replicate experiments; read-out: IC50 (nM) of HDAC isoforms enzyme, HDAC2
T3 construct: purchased BPS Bioscience Corp. (San Diego, CA, USA)
T3 sequence (Q92769 whole entry, canonical isoform): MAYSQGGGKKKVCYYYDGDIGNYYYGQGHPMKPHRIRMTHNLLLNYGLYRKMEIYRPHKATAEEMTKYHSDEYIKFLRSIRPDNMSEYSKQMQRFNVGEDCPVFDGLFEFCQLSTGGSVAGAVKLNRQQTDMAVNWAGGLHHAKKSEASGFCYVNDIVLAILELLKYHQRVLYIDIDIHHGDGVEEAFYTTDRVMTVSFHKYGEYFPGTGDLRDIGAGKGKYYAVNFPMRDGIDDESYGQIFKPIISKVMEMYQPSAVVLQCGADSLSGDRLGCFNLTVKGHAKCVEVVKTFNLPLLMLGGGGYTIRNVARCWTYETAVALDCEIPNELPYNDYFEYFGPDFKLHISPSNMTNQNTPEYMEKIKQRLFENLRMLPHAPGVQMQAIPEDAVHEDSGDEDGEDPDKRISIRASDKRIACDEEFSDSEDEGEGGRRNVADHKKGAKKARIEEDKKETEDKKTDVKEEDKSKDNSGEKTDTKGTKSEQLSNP
Text: as §1

HIG-82 synoviocytes = experiment: Cell proliferation assay (SRB), HIG-82 synoviocytes; assay type: cell-based, rabbit; settings: 24 or 48 h
RA-FLS = experiment: Cell cycle distribution by propidium iodide flow cytometry; assay type: cell-based, human; settings: RA-FLS 24 h, MPT0G009 1–1000 nM, SAHA 3–3000 nM
p21 in RA-FLS = experiment: p21 expression in RA-FLS by flow cytometry
Protocol: After three washes with FACS washing buffer, the fluorescence of the cells was analyzed on a FACScan flow cytometer (BD Biosciences). […] They were then incubated for 30 min at room temperature with 0.2 ml of DNA extraction buffer (0.2 M Na2HPO4 and 0.1 M citric acid buffer, pH 7.8), resuspended in 1 ml of propidium iodide staining buffer (0.1% Triton X-100, 100 μg/ml of RNase A and 80 μg/ml of propidium iodide in PBS), incubated at 37 °C for 30 min in the dark, sorted by FACScan, and analyzed using CellQuest software (BD Biosciences).

recombinant HDAC4 = molecular target: T4, recombinant HDAC4 (Homo sapiens, UniProt P56524); experiment: Fluorogenic assay kit, recombinant HDAC4 enzyme activity; assay type: biochemical; settings: three replicate experiments; read-out: IC50 (nM) of HDAC isoforms enzyme, HDAC4
T4 construct: purchased BPS Bioscience Corp. (San Diego, CA, USA)
T4 sequence (P56524 627-1084 limits assumed): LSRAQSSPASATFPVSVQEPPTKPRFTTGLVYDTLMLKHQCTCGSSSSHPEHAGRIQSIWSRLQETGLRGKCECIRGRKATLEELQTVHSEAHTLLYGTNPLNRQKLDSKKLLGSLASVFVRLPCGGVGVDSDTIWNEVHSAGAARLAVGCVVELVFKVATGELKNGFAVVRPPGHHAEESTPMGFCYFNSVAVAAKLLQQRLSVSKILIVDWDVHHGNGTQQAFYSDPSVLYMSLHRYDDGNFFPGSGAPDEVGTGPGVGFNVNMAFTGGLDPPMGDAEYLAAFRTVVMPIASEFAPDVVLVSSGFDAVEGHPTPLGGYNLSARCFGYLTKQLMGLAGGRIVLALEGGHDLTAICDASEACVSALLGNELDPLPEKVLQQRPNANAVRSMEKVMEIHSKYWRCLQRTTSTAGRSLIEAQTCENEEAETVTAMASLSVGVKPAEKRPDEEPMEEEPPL
Text: as §1

rat AIA model = experiment: In vivo adjuvant-induced arthritis (AIA) model
Protocol: Next, we evaluated the in vivo anti-arthritic effects of MPT0G009 in a rat AIA model. […] The inhibition of synoviocytes proliferation and inflammation by MPT0G009 treatment was also observed (Supplementary Figure 1).
Figure 5 MPT0G009 inhibits the development of arthritis in an AIA model. […] Subsequently, swelling of both hind paws was photographed. (b) Hind paw volumes in the indicated group of rats were measured using a digital plethysmometer on the indicated day after AIA induction. (c) Arthritis scores on day 21. (d) Serum levels of interleukin (IL)-1β (left panel) and IL-6 (right panel) on day 21 as measured by enzyme-linked immunosorbent assay (ELISA). (e) Top five rows: photomicrographs of ankle joint sections from the different groups stained with hematoxylin and eosin, safranin O, immunohistochemically stained with an anti-acetyl H3 antibody or TRAP stain. Arrows indicate osteoblasts (OB); arrowheads indicate osteoclasts (OC). Bottom panels: micro-CT results (arrows indicate bone erosion). (f) The BMD (in mg/mm^3) and the BMC (in mg) values for the bone tissue of the tarsus were analyzed using CT Analysis Software.
Five-week-old male Lewis rats were obtained from the National Laboratory Animal Center (Taipei, Taiwan). Complete Freund's adjuvant (CFA) was prepared by suspending heat-killed Mycobacterium butyricum (Difco, Sparks, MD, USA) in mineral oil at 3 mg/ml. CFA-induced arthritis was induced by intradermal injection of 100 μl of the CFA emulsion into the base of the right hind paw on day 0. […] On days 0, 2, 6, 9, 13, 17 and 21, the animals were weighed and both hind paw volumes measured using a digital plethysmometer (Diagnostic & Research Instruments Co. Ltd, Taipei, Taiwan). On day 21, micro-CT of the paws was performed by the Core Facilities Center of the National Research Program for Biopharmaceuticals using an in vivo micro-CT scanner (Skyscan 1176, Bruker Corp., Kontich, Belgium) at 18 μm resolution and 180° scanning with a rotation step of 0.8° per image, 300 ms integration time, 70 keV photon energy and 350 μA current. The reconstructed volumes from micro-CT scans were analyzed by CT Analysis Software (CTAn, Bruker Corp.). Quantification of volumetric BMD and bone volume (BV) was performed in a defined bone area ranging 12 mm from tarsals to the end of the calcaneus. The BMC was described by the product of BV and BMD. On day 21, the rats were killed and specimens from the phalanges and ankle joints stained with hematoxylin–eosin or safranin O for histopathological assessment by the National Laboratory Animal Center. Intensity of arthritis was scored as described previously from 0 to 4.[19] All four legs were scored, so the highest possible arthritic score was 16.

recombinant HDAC3 = molecular target: T5, recombinant HDAC3 (Homo sapiens, UniProt O15379); experiment: Fluorogenic assay kit, recombinant HDAC3 enzyme activity; assay type: biochemical; settings: mean±S.E.M., three replicate experiments; read-out: IC50 (nM) of HDAC isoforms enzyme, HDAC3
T5 construct: purchased BPS Bioscience Corp. (San Diego, CA, USA)
T5 sequence (O15379 whole entry, canonical isoform): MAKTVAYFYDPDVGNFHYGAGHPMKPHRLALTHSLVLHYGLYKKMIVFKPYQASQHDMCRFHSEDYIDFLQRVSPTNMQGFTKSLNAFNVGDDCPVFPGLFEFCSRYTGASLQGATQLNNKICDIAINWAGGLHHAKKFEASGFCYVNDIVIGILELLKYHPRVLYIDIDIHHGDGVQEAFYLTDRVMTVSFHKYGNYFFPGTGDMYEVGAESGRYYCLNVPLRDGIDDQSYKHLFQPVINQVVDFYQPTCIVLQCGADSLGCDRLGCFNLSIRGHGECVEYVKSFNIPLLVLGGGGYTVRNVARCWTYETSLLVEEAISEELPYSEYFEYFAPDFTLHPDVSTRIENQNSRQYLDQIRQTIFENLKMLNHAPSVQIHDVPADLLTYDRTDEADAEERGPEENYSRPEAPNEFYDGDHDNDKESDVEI
T5 sequence (Q9Y618 395-489 partner limits assumed): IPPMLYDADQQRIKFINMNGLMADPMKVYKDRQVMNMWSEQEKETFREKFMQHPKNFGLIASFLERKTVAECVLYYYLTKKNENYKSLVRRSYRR
Text: as §1

[2] = day 21, ELISA, MPT0G009 25 mg/kg, SAHA 200 mg/kg, indomethacin 1 mg/kg
[3] = oral daily days 2 to 21, MPT0G009 25 mg/kg, SAHA 200 mg/kg, indomethacin 1 mg/kg, vs vehicle

SMILES: COc1ccc(S(=O)(=O)N2CCc3cc(C=CC(=O)NO)ccc32)cc1 [MPT0G009, 3-[1-(4-methoxybenzenesulfonyl)-2,3-dihydro-1H-indol-5-yl]-N-hydroxyacrylamide]
- IC50 (recombinant HDAC8): 22.5 ± 2.16 nM
- RANKL-induced NFATc1 luciferase activity (NFATc1 in RAW264.7 cells): inhibited
- RANKL-induced NF-κB luciferase activity (NF-κB in RAW264.7 cells): inhibited
- IC50 (recombinant HDAC1): 4.62 ± 0.81 nM
- acetylation of histone H3 (Acetyl-H3) [1]: significant hyperacetylation
- IC50 (recombinant HDAC2): 5.16 ± 0.76 nM
- anti-proliferative effect (HIG-82 synoviocytes): concentration-dependent anti-proliferative effects
- subG1 peak (cellular apoptosis) (RA-FLS): did not increase the subG1 peak
- cell cycle arrest (RA-FLS; all concentrations): G0/G1 phase arrest
- expression of p21 (p21 in RA-FLS; RA-FLS 24 h, 1 μM MPT0G009 or 3 μM SAHA, flow cytometry or western blot): significantly increased
- p21 (flow cytometry) (p21 in RA-FLS; RA-FLS, 1 μM, 24 h, Figure 1h): 94.71%
- IC50 (recombinant HDAC4): > 10000 nM
- cartilage degradation (safranin O staining of ankle joints) (rat AIA model; 25 mg/kg): markedly reduced
- formation of osteoclasts (TRAP stain) (rat AIA model; 25 mg/kg): significantly decreased
- leukocyte infiltration, synovitis (hematoxylin and eosin staining) (rat AIA model; 25 mg/kg): significantly reduced
- levels of acetyl-histone H3 (immunohistochemical staining) (rat AIA model; 25 mg/kg): increased levels
- bone destruction (micro-CT) (rat AIA model; 25 mg/kg, day 21): ameliorated
- bone mineral content (BMC) (rat AIA model; 25 mg/kg, tarsus, micro-CT): prevented the decrease
- bone mineral density (BMD) (rat AIA model; 25 mg/kg, tarsus, micro-CT): prevented the decrease
- serum levels of IL-1β (rat AIA model; [2]): significant decreases
- serum levels of IL-6 (rat AIA model; [2]): significant decreases
- arthritis scores (rat AIA model; day 21, MPT0G009 25 mg/kg, SAHA 200 mg/kg, indomethacin 1 mg/kg, vs vehicle): significant reductions
- paw swelling (rat AIA model; [3]): significant reductions
- paw volume (rat AIA model; [3]): significant reductions
- IC50 (recombinant HDAC3): 1.91 ± 0.22 nM
